pKd: −log10 of the molar value.

These results are taken from BindingDB's records for doi:10.1021/jm701266y (Lund University, 2008).

The test addresses Galectin-3 (Homo sapiens, UniProt P17931). As to the kind of experiment: Fluorescence Polarization Assay. The conditions noted are these: pH 7.2; 24 °C. The method, then:
In fluorescence polarization measurements, a fluorescent probe was excited with plane-polarized light and the degree of polarization remaining in the emitted light is measured. When the probe is bound to protein, it rotates slower than when free, and the remaining fluorescence polarization is higher. The fluorescent anisotropy value for a probe-protein mixture is the average of the value for bound and free probe. For the direct binding asaay, the data (anisotropy, A in mA vs galectin concentration, [G] in uM) were fitted to a simplified formula to obtain Kd.
(Polarisation of emitted light reports the rotation of a fluorescent probe.)

Sequence of Galectin-3 (P17931 whole entry): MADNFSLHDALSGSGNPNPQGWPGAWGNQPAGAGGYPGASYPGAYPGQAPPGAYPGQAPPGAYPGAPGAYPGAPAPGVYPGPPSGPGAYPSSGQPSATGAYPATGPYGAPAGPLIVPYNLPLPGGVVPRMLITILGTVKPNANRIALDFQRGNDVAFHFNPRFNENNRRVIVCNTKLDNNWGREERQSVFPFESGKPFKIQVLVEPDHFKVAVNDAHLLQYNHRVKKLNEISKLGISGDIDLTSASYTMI

On to `CS[C@@H]1O[C@H](CO)[C@H](O)[C@H](NC(=O)c2ccc(C)cc2)[C@H]1OCc1ccccc1` [N-[(2S,3R,4S,5R,6R)-3-(benzyloxy)-5-hydroxy-6-(hydroxymethyl)-2-(methylsulfanyl)oxan-4-yl]-4-methylbenzamide], for which the pKd was 3.42.

In general, pKd refers to the negative decadic logarithm of the Kd, by convention in mol/L. A higher pKd goes with a small Kd.
